Laboratory results as given in patent US20230047569A1, “PESTICIDAL COMPLEX COMPOSITIONS FOR SYNERGISTIC DELIVERY OF PESTICIDAL ACTIVE INGREDIENTS AND METHODS OF SELECTION THEREOF” (0903608 B.C. Ltd., priority 2019, published 2023).

Assays:
Trichoplusia ni = test: In-planta insecticidal efficacy on sprayed green cabbage plants (Abbott and Colby formulas); format: in vivo; conditions: 6 days; for Survival Rate (%): Coragen […] (0.104 ppm chlorantraniliprole) and/or aliphatic acid 750 ppm, 10% isopropanol; for Observed Efficacy, W (%): Coragen […] and/or aliphatic acid 750 ppm, Abbott corrected vs 10% isopropanol control
Method: Water and 10% isopropanol were tested as control treatments.
Green cabbage plants (Brassica oleracea var. capitate, Danish Ballhead cultivar) were grown from seed (available from West Coast Seeds, Delta, BC, Canada) in potting soil for 4-6 weeks in a pest-free indoor growing environment. At between 4-6 weeks of age, each cabbage plant was sprayed with 20 mL of treatment solution using a pressurized CO2 sprayer from approximately 18 inches above the plant, and allowed to dry.
While for SF<1, antagonism is present and for SF=1, the efficacy of the compounds is merely additive.

[1] = Solubility / effective solubilized concentration in 10% DMSO/90% PDB by HPLC; conditions: working stock: DMSO stock diluted 10-fold in PDB
Method: This solution was diluted 10-fold in potato dextrose broth (PDB) to give a concentration of 0.05 mg/mL in 10% DMSO/90% PDB.
Concentrated stock solutions were prepared by dissolving pesticidal active ingredient in 100% dimethylsulfoxide (DMSO), which were then diluted 10-fold in potato dextrose broth (PDB) to give a working stock solution, as described below: […]

Compound	Survival Rate (%) (Trichoplusia ni)	Observed Efficacy, W (%) (Trichoplusia ni)	effective solubilized concentration [1]
CCC(C)CCC(=O)O (stereo not shown) [4-methylhexanoic acid]	62.50%	2.34%	
CO/C=C(/C(=O)OC)c1ccccc1Oc1cc(Oc2ccccc2C#N)ncn1 [Azoxystrobin, azoxystrobin]			0.15 mg/mL
O=C(O)CCCCCCCCCO [10-hydroxydecanoic acid]	40.50%	36.72%	
CCC(N)C(=O)O (stereo not shown) [2-aminobutyric acid]	58.50%	8.59%	
